The test system of experiment [1] is c-FMS. Description: cFOS mRNA production in a c-FMS mouse spleen pharmacodynamic model. The settings on record: out to 8 h post 30 mg/kg single oral dose, read-out: inhibition of cFOS mRNA levels. It counts as in vivo. Here is the method: Analysis of cFOS mRNA Production in a c-FMS Mouse Spleen Pharmacodynamic Model To examine the in vivo modulation of FMS activity by compounds of formula I, spleen samples from female DBA/1 mice were collected and analyzed for M-CSF stimulated production of cFOS mRNA. Briefly, six to seven week old female Taconic DBA/1BO J Bom Tac mice were treated with a single oral dose (by gavage) of either vehicle or compound. Plasma and spleen samples are collected from four mice at each timepoint 2, 4, 6, 8, 12, 18, and 24 hours after dosing. Fifteen minutes prior to euthanasia, all mice were injected IV with 1 μg (100 μL fixed volume) of M-CSF. M-CSF, Recombinant Mouse Macrophage Colony Stimulating Factor (36.4 kDa homodimer, ≧98% purity) was obtained from Gibco. All procedures carried out in this experiment were conducted in compliance with all the laws, regulations and guidelines of the National Institutes of Health (NIH). cFOS mRNA levels in spleen extracts were determined using a quantitative reverse transcriptase PCR kit from Life Technologies. Plasma levels of FMS inhibitors were determined by mass spectrometer analysis. The degree of FMS inhibition was correlative to the amount of decrease observed in cFOS mRNA levels in the spleen samples of treated animals compared to vehicle.

Experiment [2] addresses T1, unphosphorylated c-KIT kinase (uKIT, Seq. ID no. 2) (Homo sapiens, UniProt P10721).
T1 construct: uKit with N-terminal GST fusion used for
The experiment in a line: uKit kinase assay (pyruvate kinase/lactate dehydrogenase coupled). The format is biochemical. The settings on record: ATP 2000 μM.
Description: In this assay, the oxidation of NADH (thus the decrease at A340 nm) was continuously monitored spectrophometrically. […] The inhibition reaction was started by mixing serial diluted test compound with the above reaction mixture. The absorption at 340 nm was monitored continuously for 4 hours at 30° C. on Synergy 2 plate reader (BioTech).

The target of experiment [3] is T2, unphosphorylated c-FMS kinase (uFMS, Seq. ID no. 1) (Homo sapiens, UniProt P07333).
T2 construct: purchased Millipore
T2 sequence (P07333 538-972): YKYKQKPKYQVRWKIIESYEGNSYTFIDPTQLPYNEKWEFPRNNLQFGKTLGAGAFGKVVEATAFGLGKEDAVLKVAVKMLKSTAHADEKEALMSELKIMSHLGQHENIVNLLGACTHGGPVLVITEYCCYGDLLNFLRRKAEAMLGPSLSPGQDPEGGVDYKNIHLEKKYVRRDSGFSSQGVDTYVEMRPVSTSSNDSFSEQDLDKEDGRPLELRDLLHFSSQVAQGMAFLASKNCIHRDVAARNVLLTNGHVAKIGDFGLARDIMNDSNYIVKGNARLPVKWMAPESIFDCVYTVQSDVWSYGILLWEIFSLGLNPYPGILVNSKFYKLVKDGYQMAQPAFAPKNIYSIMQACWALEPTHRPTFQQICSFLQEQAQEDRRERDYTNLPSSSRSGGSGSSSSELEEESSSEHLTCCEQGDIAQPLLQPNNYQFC
Description: uFMS kinase assay (pyruvate kinase/lactate dehydrogenase coupled). The format is biochemical. The settings on record: ATP 500 μM.

In experiment [4] the target is T3, unphosphorylated PDGFRβ kinase (uPDGFRβ, Seq. ID No. 3) (Homo sapiens, UniProt P09619).
T3 construct: purchased DeCode
The experiment in a line: Unphosphorylated PDGFRβ kinase assay (pyruvate kinase/lactate dehydrogenase coupled). The settings on record: ATP 500 μM. It counts as biochemical. An excerpt:
Unphosyhorylated PDGFRβ (uPDGFRβkinase (Seq. ID No. 3) assay

The test system of experiment [5] is M-NFS-60 cells. Description: M-NFS-60 cell proliferation assay. It counts as cell-based. The settings on record: 67 h incubation, resazurin. (Resazurin is reduced to fluorescent resorufin, in cell work by metabolically active cells.)
Description: M-NFS-60 Cell Proliferation Assay A serial dilution of test compound was dispensed into a 384-well black clear bottom plate (Corning, Corning, N.Y.). Two thousand five hundred cells were added per well in 50 μL complete growth medium. […] IC50 values were calculated from a series of percent inhibition values determined at a range of inhibitor concentrations using software routines as implemented in the GraphPad Prism software package.
Experiment [6] has as its target T4, phospho-FMS in THP-1 cells (Homo sapiens, UniProt P07333).
T4 construct: endogenous in cells; host or cells: THP-1 (ATCC TIB-202)
Description: Phospho-FMS ELISA assay in THP-1 cells. The format is cell-based. The settings on record: 4 hours compound, M-CSF stimulated; read-out: pFMS inhibition in THP-1 cells. Background: An ELISA detects its analyte on a solid surface through an enzyme-linked reagent.
Description: In a separate 96 well black clear bottom plate, one hundred and fifty thousand THP-1 cells were added per well in 100 μL in assay medium. Fifty microliters of diluted compound was then added to the cells. […] Lysates were prepared and used to perform the phospho-FMS ELISA as described by the manufacturer (catalog #DYC3268, R & D Systems, Minneapolis, Minn.). GraphPad Prism was used to calculate IC50 values obtained from data generated from the ELISA assay.

In experiment [7] the test system is osteoclast precursors. Description: Osteoclast tartrate-resistant acid phosphatase assay. The format is cell-based. The settings on record: Osteoclast; 7-14 days, RANKL and M-CSF.

T4 sequence (P07333 20-972): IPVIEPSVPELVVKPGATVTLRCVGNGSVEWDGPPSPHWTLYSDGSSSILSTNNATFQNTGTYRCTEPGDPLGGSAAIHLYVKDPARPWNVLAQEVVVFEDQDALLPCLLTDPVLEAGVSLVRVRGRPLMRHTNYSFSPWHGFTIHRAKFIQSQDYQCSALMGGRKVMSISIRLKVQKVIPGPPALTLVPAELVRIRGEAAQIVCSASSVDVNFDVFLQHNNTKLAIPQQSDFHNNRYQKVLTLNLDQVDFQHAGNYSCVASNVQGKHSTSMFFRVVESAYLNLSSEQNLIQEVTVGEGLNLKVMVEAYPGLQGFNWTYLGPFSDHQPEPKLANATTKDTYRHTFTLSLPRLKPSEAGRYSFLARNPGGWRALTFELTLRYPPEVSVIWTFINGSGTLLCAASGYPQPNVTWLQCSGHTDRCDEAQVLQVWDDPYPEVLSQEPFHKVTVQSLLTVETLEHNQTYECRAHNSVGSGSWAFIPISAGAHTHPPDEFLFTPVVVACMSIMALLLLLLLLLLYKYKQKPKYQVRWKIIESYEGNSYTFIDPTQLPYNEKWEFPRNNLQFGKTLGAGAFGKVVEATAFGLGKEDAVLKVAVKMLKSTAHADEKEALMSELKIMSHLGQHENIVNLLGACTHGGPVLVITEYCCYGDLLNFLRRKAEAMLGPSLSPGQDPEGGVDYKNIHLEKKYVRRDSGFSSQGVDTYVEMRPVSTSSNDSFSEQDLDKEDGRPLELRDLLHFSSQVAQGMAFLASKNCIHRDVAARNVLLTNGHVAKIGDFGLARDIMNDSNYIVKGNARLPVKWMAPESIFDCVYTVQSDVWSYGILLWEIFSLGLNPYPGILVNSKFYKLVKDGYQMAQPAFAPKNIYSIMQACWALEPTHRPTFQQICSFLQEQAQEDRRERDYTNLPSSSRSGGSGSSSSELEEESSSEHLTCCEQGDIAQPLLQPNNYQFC
T3 sequence (P09619 557-1105): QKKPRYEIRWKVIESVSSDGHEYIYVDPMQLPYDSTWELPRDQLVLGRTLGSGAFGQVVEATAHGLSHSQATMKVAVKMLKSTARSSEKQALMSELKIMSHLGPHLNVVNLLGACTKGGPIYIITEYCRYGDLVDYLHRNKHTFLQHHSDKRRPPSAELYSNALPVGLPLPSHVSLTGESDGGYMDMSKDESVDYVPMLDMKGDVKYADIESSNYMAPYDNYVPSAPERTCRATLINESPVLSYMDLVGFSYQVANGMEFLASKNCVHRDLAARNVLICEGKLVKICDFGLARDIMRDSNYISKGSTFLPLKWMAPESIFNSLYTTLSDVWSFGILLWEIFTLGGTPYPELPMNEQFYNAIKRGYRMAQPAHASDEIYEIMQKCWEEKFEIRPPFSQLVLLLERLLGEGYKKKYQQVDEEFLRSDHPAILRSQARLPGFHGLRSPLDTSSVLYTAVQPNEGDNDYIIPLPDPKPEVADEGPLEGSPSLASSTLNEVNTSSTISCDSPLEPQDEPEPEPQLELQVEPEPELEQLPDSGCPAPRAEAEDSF
T1 sequence (P10721 with tags, fused parts or gaps): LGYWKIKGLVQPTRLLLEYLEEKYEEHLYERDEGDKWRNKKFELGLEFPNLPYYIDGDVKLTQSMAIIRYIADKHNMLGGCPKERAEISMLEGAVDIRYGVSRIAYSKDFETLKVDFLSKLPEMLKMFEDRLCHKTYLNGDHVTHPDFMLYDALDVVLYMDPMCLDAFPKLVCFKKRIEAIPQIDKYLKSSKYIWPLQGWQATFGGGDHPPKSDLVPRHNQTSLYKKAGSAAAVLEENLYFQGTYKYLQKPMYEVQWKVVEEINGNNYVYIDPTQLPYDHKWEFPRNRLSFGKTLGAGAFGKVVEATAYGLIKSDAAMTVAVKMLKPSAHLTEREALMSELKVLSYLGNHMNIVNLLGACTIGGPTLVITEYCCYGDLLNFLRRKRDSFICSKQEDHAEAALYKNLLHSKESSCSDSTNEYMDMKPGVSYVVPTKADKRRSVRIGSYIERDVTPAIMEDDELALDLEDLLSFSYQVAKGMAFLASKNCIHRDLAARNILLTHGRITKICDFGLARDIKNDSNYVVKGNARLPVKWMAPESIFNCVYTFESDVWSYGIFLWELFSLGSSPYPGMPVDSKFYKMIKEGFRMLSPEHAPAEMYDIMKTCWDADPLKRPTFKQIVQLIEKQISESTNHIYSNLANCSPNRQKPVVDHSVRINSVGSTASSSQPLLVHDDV

Consider `CC(=O)Nc1cc(Oc2ccc(NC(=O)NC(=O)C3CCCC3)nc2C)ccn1` [Example 8, N-((5-((2-acetamidopyridin-4-yl)oxy)-6-methylpyridin-2-yl)carbamoyl)cyclopentanecarboxamide], for which, in experiment [1], the inhibition in vivo at 30 mg/kg was not below 50%. The IC50 in experiment [2] is 100 to 1000 nM; in experiment [3], less than 10 nM; in experiment [4], 10 to 100 nM; in experiment [5] it was less than 10 nM; in experiment [6], less than 10 nM; in experiment [7], less than 10 nM.

As to `CN(C)C(=O)Nc1cc(Oc2ccc(NC(=O)NC(=O)C(C)(C)C)nc2)ccn1` [Example 23, N-((5-((2-(3,3-dimethylureido)pyridin-4-yl)oxy)pyridin-2-yl)carbamoyl)pivalamide], in experiment [1], the inhibition in vivo at 30 mg/kg was not below 50%. Besides, the IC50 in experiment [2] was more than 1000 nM; in experiment [3], less than 10 nM; in experiment [4], 100 to 1000 nM; in experiment [5] it was less than 10 nM; in experiment [6], less than 10 nM; in experiment [7] it was less than 10 nM.

Consider `Cc1nc(NC(=O)NC(=O)C(C)(C)C)ccc1Oc1ccnc(NC(=O)N(C)C)c1` [Example 62, N-((5-((2-(3,3-dimethylureido)pyridin-4-yl)oxy)-6-methylpyridin-2-yl)carbamoyl)pivalamide], for which the inhibition in vivo at 30 mg/kg in experiment [1] was not below 50%. The IC50 in experiment [2] was more than 1000 nM; in experiment [3], less than 10 nM; in experiment [4], more than 1000 nM; in experiment [5], less than 10 nM; in experiment [6], less than 10 nM; in experiment [7], 10 to 100 nM.

Regarding `CC(=O)Nc1cc(Oc2ccc(NC(=O)NC(=O)C(C)(C)C)nc2)ccn1` [Example 3, N-((5-((2-acetamidopyridin-4-yl)oxy)pyridin-2-yl)carbamoyl)pivalamide], the inhibition in vivo at 30 mg/kg in experiment [1] is not below 50%. The IC50 in experiment [2] is more than 1000 nM; in experiment [3] it was less than 10 nM; in experiment [4] it was more than 1000 nM; in experiment [5] it was 10 to 100 nM; in experiment [6], less than 10 nM; in experiment [7], less than 10 nM.

On to `CNC(=O)c1cc(Oc2ccc(NC(=O)NC(=O)C(C)(C)C)nc2)ccn1` [Example 34, N-methyl-4-((6-(3-pivaloylureido)pyridin-3-yl)oxy)picolinamide], for which the inhibition in vivo at 30 mg/kg in experiment [1] is not below 50%. Further, the IC50 in experiment [2] is more than 1000 nM; in experiment [3], less than 10 nM; in experiment [4], more than 1000 nM; in experiment [5], 10 to 100 nM; in experiment [6], 10 to 100 nM; in experiment [7], 10 to 100 nM.

The record behind these values is patent US9309224B2 (Deciphera Pharmaceuticals, LLC, priority 2013, dated 2016).
